Data: PubChem BioAssay (NCI)
Values joined by “and” are separate entries in the source; they are usually repeats but may differ in a detail not shown here. Equal entries are not always repeated.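 Results reflect a 48-hour exposure of cells in 96-well plates to compound at five concentrations. At the GI50, growth is halved. Definition used: TGI = concentration required for complete inhibition of growth.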

Columns and labels:
Assay in all cases: inhibition of tumour cell growth, NCI panel, 48 h
NCI-H23 lung = system: NCI-H23 lung
NCI-H226 lung = system: NCI-H226 lung
UACC-257 melanoma = system: UACC-257 melanoma
SNB-75 CNS = system: SNB-75 CNS
OVCAR-8 ovarian = system: OVCAR-8 ovarian
SF-295 CNS = system: SF-295 CNS
HCT-15 colon = system: HCT-15 colon
CAKI-1 renal = system: CAKI-1 renal
DU-145 prostate = system: DU-145 prostate
BT-549 breast = system: BT-549 breast

Compound | TGI (NCI-H23 lung) | TGI (NCI-H226 lung) | TGI (UACC-257 melanoma) [µM] | TGI (SNB-75 CNS) [µM] | TGI (OVCAR-8 ovarian) | TGI (SF-295 CNS) | TGI (HCT-15 colon) | TGI (CAKI-1 renal) [µM] | GI50 (NCI-H23 lung) [µM] | GI50 (DU-145 prostate) | TGI (DU-145 prostate) [µM] | GI50 (NCI-H226 lung) | GI50 (UACC-257 melanoma) [µM] | GI50 (BT-549 breast) | TGI (BT-549 breast) | GI50 (SNB-75 CNS) [µM] | GI50 (OVCAR-8 ovarian) | GI50 (SF-295 CNS) [µM] | GI50 (HCT-15 colon) [µM] | GI50 (CAKI-1 renal) [µM]
CCN(CC)C(=O)Cc1[nH][nH]c(=O)c1C(=O)N(CC)CC | > 100 µM | > 100 µM | > 100 | > 100 | > 100 µM | > 100 µM | > 100 µM | – | – | – | – | – | – | – | – | – | – | – | – | –
CCN(CC)c1ccc(N=Nc2ccc(-c3nc4cccnc4s3)cc2)cc1 | > 100 µM | > 100 µM | > 100 | 98.9 | > 100 µM | > 100 µM | – | > 100 | – | – | – | – | – | – | – | – | – | – | – | –
COc1ccc([C@@H]2[C@@H](Cl)C(=O)N2c2cc(OC)c(OC)c(OC)c2)cc1C | > 100 µM | 73.9 µM | 97.3 | 37.9 | 77.5 µM | 39.7 µM | > 100 µM | – | 0.0853 | 0.0405 µM | 0.236 | 13.2 µM | 15.7 | 0.0717 µM | 1.13 µM | 0.0355 | 0.0504 µM | 0.0501 | 0.0535 | –
O=C(CC(C(=O)c1ccsc1)c1cccs1)c1cccs1 (stereo unspecified) | > 100 µM | > 100 µM | > 100 | > 100 | > 100 µM | > 100 µM | > 100 µM | – | – | – | – | – | – | – | – | – | – | – | – | –
COc1ccccc1NC(=O)c1sc2ncn(CCOc3ccccc3)c(=O)c2c1C | > 50 µM | – | > 50 | – | > 50 µM | > 50 µM | 15.1 µM | > 50 | 4.93 | > 50 µM | > 50 | – | 1.49 | 26.7 µM | > 50 µM | – | > 50 µM | 1.69 | 0.431 | 2.42
N#Cc1c(N)oc2cc3c(C#N)c(N)oc3cc12 | > 100 µM | – | > 100 | > 100 | > 100 µM | > 100 µM | > 100 µM | > 100 | – | – | – | – | – | – | – | – | – | – | – | –
CC(C)(c1ccc(C=O)o1)c1ccc(C(C)(C)c2ccc(C=O)o2)o1 | > 100 µM | > 100 µM | > 100 | – | > 100 µM | > 100 µM | – | > 100 | – | – | – | – | – | – | – | – | – | – | – | –
CCOC(=O)C1=C(C)N(NC(=O)Nc2ccccc2)C2(N)N(NC(=O)Nc3ccccc3)C(C)=C(C(=O)OCC)C12C#N (stereo unspecified) | 43.9 µM | 36.1 µM | 38.5 | 36.6 | 33.4 µM | – | 37.1 µM | 40.1 | – | – | – | – | – | – | – | – | – | – | – | –
CC(=O)O[C@H]1CSC[C@@H](OC(C)=O)C1[N+](=O)[O-] (stereo partly specified) | > 100 µM | > 100 µM | 52 | > 100 | > 100 µM | > 100 µM | 88.9 µM | > 100 | – | – | – | – | – | – | – | – | – | – | – | –
CO[C@H]1C[C@H](O[C@H]2CC[C@@]3(C)[C@H](CC[C@@H]4[C@@H]3CC[C@]3(C)[C@@H](C5=CC(=O)OC5)CC[C@]43O)C2)O[C@H](C)[C@H]1O | 0.0178 µM | 0.0586 µM | 0.215 | 0.17 | 0.0245 µM | 0.0555 µM | 0.0164 µM | 0.0284 | – | – | – | – | – | – | 0.0175 µM | – | – | – | – | –
CC(C)(C)n1cc(-c2ccnc(NCCCNS(=O)(=O)c3cccc4ccccc34)c2)c(-c2cccc(O)c2)n1 | 3.84 µM | 4.36 µM | 4.39 | 5.48 | 6.28 µM | 3.52 µM | 3.64 µM | 7.04 | 1.78 | 2.65 µM | 7.45 | 1.97 µM | 2.07 | – | – | 1.88 | 2.38 µM | 1.8 | 1.53 | 2.49
C(=C\c1ccc2ccccc2c1Nc1ccccc1)/c1ccccc1 | > 87.6 µM | > 100 µM | > 100 | 39.9 | 81.1 µM | > 100 µM | > 100 µM | > 83.8 | – | – | – | – | – | – | – | – | – | – | – | –
NC1(C(=O)O)CCC(C(=O)O)CC1 (stereo unspecified) | > 100 µM | > 100 µM | > 100 | > 100 | > 100 µM | > 100 µM | – | > 100 | – | – | – | – | – | – | – | – | – | – | – | –
Nc1ncc(CN2CCCC2)c(-c2ccccc2O)n1 | > 750 µM | > 750 µM | > 750 | > 750 | > 750 µM | > 750 µM | > 750 µM | > 750 | – | – | – | – | – | – | – | – | – | – | – | –
COC1=CC(=O)[C@@]2(C)C(C)[C@H](c3ccccc3)[C@H]2C1=O (stereo partly specified) | > 100 µM | > 100 µM | > 100 | > 100 | > 100 µM | > 100 µM | > 100 µM | > 100 | – | – | – | – | – | – | – | – | – | – | – | –
COc1cc(C(=O)/C=C/c2c[nH]c3ccccc23)cc(OC)c1OC | 45.4 µM | 26.8 µM | – | 37.2 | 15.6 µM | – | 19.4 µM | 29.8 | 0.0602 | 0.0296 µM | 30 | 0.397 µM | – | 0.0288 µM | 4.16 µM | 0.0264 | 0.037 µM | – | < 0.0187 | < 0.0193
O=C1OCc2nc3c(c(-c4ccccc4C(F)(F)F)c21)C(=O)OC3 | > 100 µM | – | > 100 | – | > 100 µM | > 100 µM | > 100 µM | – | – | – | – | – | – | – | – | – | – | – | – | –
Cc1cc2c3ccccc3n3c2c2c1OC1(C)CCC(C2C1)C3(C)C (stereo unspecified) | – | > 25 µM | – | – | > 25 µM | – | > 25 µM | – | – | – | – | – | – | – | – | – | – | – | – | –
C=C1C(=O)C23C(O)CC4C(C)(C)CCC(O)C4(C)C2CC(OC(C)=O)C1[C@H]3O (stereo partly specified) | 8.38 µM | 28.1 µM | 8.38 | 22.7 | 2.83 µM | 21.6 µM | 6 µM | 9.39 | – | – | – | – | – | – | – | – | – | – | – | –
O=C1c2c(c3c4ccccc4n(CC4CO4)c3c3[nH]c4ccccc4c23)C(=O)N1Cc1ccccc1 (stereo unspecified) | > 100 µM | > 100 µM | > 100 | – | > 100 µM | > 100 µM | > 100 µM | > 100 | – | – | – | – | – | – | – | – | – | – | – | –
CC1(C)C2CC(=O)C1(C)C(OCc1ccccc1)C2Br (stereo unspecified) | 76.3 µM and > 100 µM | 56.1 µM and > 100 µM | – | – | 56.8 µM and > 100 µM | 70.9 µM and > 100 µM | 31.1 µM and > 100 µM | – | – | 29.7 µM and 86.8 µM | > 100 | 23.2 µM and > 100 µM | – | 26.6 µM and 54.3 µM | 67.4 µM and > 100 µM | – | 22.7 µM and 95.7 µM | – | – | –
